In a melting point compilation (Tetko et al.; mined from patent text by program, amines drawn as free bases though some values may be those of a salt):

Structure (SMILES)	melting point
CCCCS(=O)(=O)NC(=O)c1ccc2nc(C)n(Cc3ccc(-c4ccccn4)cc3)c2c1	292 to 298 °C
CCCCCCCCCCCCCC(=O)Nc1cc(NC(=O)CCCCCCCCCCCCC)cc(C(=O)N(CC(=O)O)CC(=O)O)c1	109 to 111 °C
O=C(O)C=CC(=O)N(CC1CO1)NCC1CO1 (centres undefined)	58 °C
CCCCn1c(=O)c(NC(=O)Nc2c(C(C)C)cccc2C(C)C)c(-c2cccc(OCCCCl)c2)c2cccnc21	138 to 140 °C
CCOc1cc(-c2cc(C(F)(F)F)n3ncc(C(=O)Nc4cccc(S(=O)(=O)NC(C)(C)CO)c4)c3n2)ccc1C(F)(F)F	268 °C
COC(=O)CCC(=O)Nc1cccc2c1C(=O)N(C1CCC(=O)NC1=O)C2=O (centres undefined)	224 to 226 °C
Cc1c(Cc2cccc(C(F)(F)F)c2)sc2c(-c3cccc(C(N)=O)c3)cccc12	190 to 191 °C
Cc1cccc(CO)c1Cl	63 to 64 °C
COc1ccc(CNc2ccc(C(=O)O)cc2)cc1	208 to 210 °C
O=C1Nc2ccc(NC(=O)C(=O)N3CCC(Cc4ccccc4)CC3)cc2C1=O	234 to 236 °C
CCOc1cc2c(c3c1OC(C)(C)C3)C(c1cccc(N3C(=O)NC(C)(C)C3=O)c1)=NC(C)(C)C2	237 to 238 °C
O=C(CCl)Nc1ccc2c(c1NC(=O)C1CCCCC1)C(=O)c1ccccc1C2=O	216 to 217 °C
COC(=O)c1nc(Cl)c(F)c(N)c1I	149 to 151 °C
CCn1nc(C#N)cc1-c1cn(C(C)C)c2cc(NS(C)(=O)=O)ccc12	144 to 145 °C
CC(C)[C@@H]1C[C@@H]([C@H](C[C@H](C(=O)N2C(=O)OC[C@@H]2Cc2ccccc2)C(C)C)N=[N+]=[N-])OC1=O	102 to 103 °C
CCOC(=O)Cn1cc2c(n1)-c1ccccc1N(C(=O)c1ccc(NC(=O)c3ccc(Cl)cc3Cl)cc1)CC2	164 to 167 °C
C#CCn1cccc1-c1nc(-c2ccc(OC)cc2)c(-c2ccc(OC)cc2)s1	102 to 104 °C
COC(=O)c1cn2c(C)c(C)sc2n1	180 to 181 °C
c1ccc2c3c([nH]c2c1)C(c1ccc2c(c1)OCCO2)NCC3 (centres undefined)	144 °C
COC(=O)C1=C(C)NC(CO)=C(C(=O)OC)C1c1ccccc1C#N (centres undefined)	177 to 178 °C
CN(C)c1ccc(CNc2nc(Nc3cccc(NS(C)(=O)=O)c3)nc3[nH]cnc23)cc1	138 to 142 °C
Nc1c(NCCCOc2cccc(C=O)c2)c(=O)c1=O	203 to 206 °C
COc1ccc(C(=O)OC2CC3C(=O)NC4(C(=O)NS(=O)(=O)C5CC5)CC4C=CCCCCCC(NC(=O)OC(C)(C)C)C(=O)N3C2)cc1 (centres undefined)	151 to 153 °C
CN(C)CCCC(C(=O)O)c1ccccc1-c1ccccc1 (centres undefined)	192 to 194 °C
CCOC(=O)C(Cc1ccc(Cl)c(OC(F)(F)C(F)F)c1)C(=O)c1ccc(F)cc1 (centres undefined)	73 to 74 °C

Structure (SMILES)	melting point
CCS(=O)(=O)c1cn(C)cc(-c2cccc(C(F)(F)F)c2)c1=O	196 to 198 °C
CC(C)(C)OC(=O)NCCc1c[nH]c2ccc(C#N)cc12	129 to 132 °C
CCN(CC)C(=O)c1c(C(=O)OC)ccc(F)c1[Si](C)(C)C	46 °C
N[C@@H](Cc1ccccc1)C(=O)NC(=O)N(CCCl)N=O	113 to 115 °C
CC(=O)OC1(c2ccc3c(c2)OCO3)C(=O)N(Cc2ccc(Cl)cc2)c2ccccc21 (centres undefined)	146 to 148 °C
CNC(=O)c1c(I)c(N)c(I)c(N(CCO)C(C)=O)c1I	197 °C
Nc1ccc(S(=O)(=O)Nc2nnc(CC(=O)O)s2)cc1	209 to 210 °C
NC(=O)CNC(=O)c1cccc(-c2cccc3sc(Cc4cccc(C(F)(F)F)c4)nc23)c1	130 to 131 °C
Nc1ccc(OC2=C(Oc3ccc(N)cc3C(F)(F)F)C(F)(F)C(F)(F)C2(F)F)c(C(F)(F)F)c1	88 to 93 °C
CC(=O)C1C2=CCC3C(CCC4(C)C(O)C(O)CC34)C2(C)CCC1O (centres undefined)	152 to 153 °C
Fc1cccc(F)c1Cn1nnc2c(Cl)nccc21	133 to 139 °C
Nc1ccc(C#Cc2nc(F)c(F)c(F)c2F)c(C#Cc2nc(F)c(F)c(F)c2F)c1	164 to 165 °C
Cc1cc(=O)n(-c2ccc(C(F)(F)F)cc2)[nH]1	130 °C
CCCCc1nn(-c2cc([N+](=O)[O-])ccc2C(F)(F)F)c(=O)n1Cc1ccc(-c2ccccc2S(=O)(=O)NC(C)(C)C)cc1F	145 to 146 °C
O=Cc1cc(C(=O)CCl)c[nH]1	178 to 179 °C
CN(C)C(=O)c1nc(-c2ccccc2)nc2c1c1ccccc1n2C	193 to 195 °C
Cc1cccc(SCC(=O)C23CC4CC(CC(C4)C2)C3)n1	116 °C
CC(=O)Oc1ccccc1-c1ccc(=O)[nH]n1	181 to 184 °C
Cc1ccc(NCc2c(F)c(F)c(C(F)(F)F)c(F)c2F)cc1C(=O)O	84 °C
FC(F)(F)C(F)(F)C1(CNC2=NCCO2)CCCCC1	115 to 118 °C
CCOC(=O)c1c(-c2ccccc2Cl)c2cc(CC)ccc2n(C)c1=O	125 to 126 °C
CC(=O)OC1CCC2(C)C3CCC4(C)C(C(C)=O)CCC4C3CC(Cl)C2(Cl)C1 (centres undefined)	187 °C
COc1ccc(CNc2nnc(NCCCO)c3ccc(Cl)cc23)cc1Cl	131 to 138 °C
COc1ccccc1N1CCN(CCCOc2ccc(-c3cn4cccnc4n3)cc2)CC1	156 to 158 °C
